# Experimental data taken from PubChem BioAssay (NCI).
# Several values for one entry are separate records, joined by “and”; a condition that tells them apart may be missing. Equal values may be shown once.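 In this assay, cells in 96-well plates receive the compound at five concentrations for 48 hours. Endpoints are linearly interpolated between the surrounding concentrations. At the GI50, growth is halved. TGI: concentration producing complete growth inhibition.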
# Tested on: A549 NSCLC
# Experiment: NCI anticancer screen, dose series, 48 h
Compound,GI50 [µM],TGI [µM]
Cc1cc(C)c(NC(=O)c2sc3nc4c(cc3c2N)C(=O)CCC4)c(C)c1,2.51,> 100
CN(C)CCNc1ccc(CO)c2oc3ccc(O)cc3c(=O)c12,,63.9
Cc1ccc(NC(=O)c2cccc(C(C)(C)C#N)c2)cc1Nc1ccc2ncn(C)c(=O)c2c1,8.16,> 100
Cc1cc2ncnn2cc1Nc1ncc2c(n1)n(C1CCOCC1)c(=O)n2C,7.22,> 100
COc1ccc(C(=O)c2cc(C)c(OC)c(C)c2)c(OC)c1O,0.32,> 100
COCC[C@H]1CCC/C=C/[C@@H]2C[C@H](O)C[C@H]2[C@H](O)/C=C/C(=O)O1,0.113,> 100
CN(Cc1ccccc1)C(=O)c1ccccc1C(=O)O,,> 100
CNC(=S)/N=C(\N)N(C)C,,> 100
CC(=O)C1Cn2c(nc3ccccc32)C[Se]1 (centres undefined),,36.2
Nc1ccccc1C#C/C=C\C#Cc1ccccc1N,41.5,> 100
COC(=O)Nc1nc2ccc(C3(c4ccc(F)cc4)OCCO3)cc2[nH]1,0.417,> 100
CN(C)CCC1(C2=CCCC2)CC/C(=C\c2ccc(Cl)cc2)C1=O (centres undefined),,26.9
CC1=CC(C)(C)N=C2SC(c3ccc(N)cc3)=NN12,,> 100
O=C(Nc1n[nH]c2cc(-c3ccccc3)ccc12)C1CC1,11.6,> 25
O=C1C2C3C=C4c5ccccc5N(c5ccccc5)C4(C2C(=O)N1c1ccc([N+](=O)[O-])cc1)[C@H]1C(=O)N(c2ccc([N+](=O)[O-])cc2)C(=O)[C@@H]31 (some centres undefined),,> 100

# Tested on: SF-295 CNS
# Experiment: NCI anticancer screen, dose series, 48 h
Compound,TGI [µM],GI50
CCOC(=O)/C(C)=C(/O)C(=O)OCC,> 100,
O=C(O)CNS(=O)(=O)c1ccc(NC(=O)c2ccc([N+](=O)[O-])cc2)cc1,> 100,
CCCCNC1CCCCC[C@H]1O (some centres undefined),> 100,
N#Cc1cc(-c2cc3ccccc3o2)oc1N,4.97,2.22 µM
Cc1cc(C(=O)Nc2ccc3cc(CN4CCOCC4)ccc3n2)c(C)n1-c1ccccc1,12.5,1.99 µM
[N-]=[N+]=C1C(=O)NN=C1c1ccccc1,> 100,
COc1ccc2c3c([nH]c2c1[N+](=O)[O-])C(C)N(C)CC3 (centres undefined),> 100,
CCOC(=O)N[C@@H]1C(CC(=O)OC)O[C@H]2OC(C)(C)O[C@H]21 (some centres undefined),> 100,
CCCCCCCCCCCCCCCC(=O)OCC(C[As](=O)(O)O)OC(=O)CCCCCCCCCCCCCCC (centres undefined),> 100,
COc1cc(/C=C/c2ccc(OC)c(O)c2)cc(OC)c1,4.54,
COc1ccc(C(=O)c2cc(C)c(OC)c(C)c2)cc1OC(=O)CCl,> 86,< 0.0229 µM
O=C(Nc1ccccc1-c1nc2ccccc2[nH]c1=O)c1ccccc1,47.4,
C=C(C)CCN[Si](c1ccccc1)(c1ccccc1)C(C)(C)C,36.4,
CC1=[N+]([O-])c2ccccc2C(=O)C1=O,> 100,
NC(=O)c1cc(Cl)ccc1NC(=O)/C=C/c1ccccc1,> 25.6,2.58 µM
O=C1/C(=C(/c2ccccc2)N2CCOCC2)Cc2ccccc21,28,12.2 µM
CC1=CC(=O)C=CC1=O,64.3,50.3 µM and 22.7 µM

Compound,TGI [µM],GI50
CCCC(CCC)NCC(O)c1cc(-c2ccc(C(F)(F)F)cc2)nc(C(F)(F)F)c1 (centres undefined),3.78,1.99 µM
Cc1cc(C)c(NC(=O)c2sc3nc4c(cc3c2N)C(=O)CCC4)c(C)c1,> 100,0.755 µM
CN(C)CCNc1ccc(CO)c2oc3ccc(O)cc3c(=O)c12,41.5,
Cc1ccc(NC(=O)c2cccc(C(C)(C)C#N)c2)cc1Nc1ccc2ncn(C)c(=O)c2c1,> 100,6.99 µM
Cc1cc2ncnn2cc1Nc1ncc2c(n1)n(C1CCOCC1)c(=O)n2C,48,4.98 µM
COc1ccc(C(=O)c2cc(C)c(OC)c(C)c2)c(OC)c1O,> 100,0.0396 µM
COCC[C@H]1CCC/C=C/[C@@H]2C[C@H](O)C[C@H]2[C@H](O)/C=C/C(=O)O1,> 100,0.0796 µM
CN(Cc1ccccc1)C(=O)c1ccccc1C(=O)O,> 100,
CNC(=S)/N=C(\N)N(C)C,> 100,
CC(=O)C1Cn2c(nc3ccccc32)C[Se]1 (centres undefined),10.1,
Nc1ccccc1C#C/C=C\C#Cc1ccccc1N,25.4,7.71 µM
COC(=O)Nc1nc2ccc(C3(c4ccc(F)cc4)OCCO3)cc2[nH]1,> 100,0.272 µM
CN(C)CCC1(C2=CCCC2)CC/C(=C\c2ccc(Cl)cc2)C1=O (centres undefined),20.8,
CC1=CC(C)(C)N=C2SC(c3ccc(N)cc3)=NN12,> 100,
O=C(Nc1n[nH]c2cc(-c3ccccc3)ccc12)C1CC1,> 25,9.07 µM
O=C1C2C3C=C4c5ccccc5N(c5ccccc5)C4(C2C(=O)N1c1ccc([N+](=O)[O-])cc1)[C@H]1C(=O)N(c2ccc([N+](=O)[O-])cc2)C(=O)[C@@H]31 (some centres undefined),> 100,

# Tested on: U251 CNS
# Experiment: NCI anticancer screen, dose series, 48 h
Compound,TGI [µM],GI50
CCOC(=O)/C(C)=C(/O)C(=O)OCC,> 100,
O=C(O)CNS(=O)(=O)c1ccc(NC(=O)c2ccc([N+](=O)[O-])cc2)cc1,> 100,
CCCCNC1CCCCC[C@H]1O (some centres undefined),> 100,
N#Cc1cc(-c2cc3ccccc3o2)oc1N,14.7,3.15 µM
Cc1cc(C(=O)Nc2ccc3cc(CN4CCOCC4)ccc3n2)c(C)n1-c1ccccc1,> 100,3.78 µM
[N-]=[N+]=C1C(=O)NN=C1c1ccccc1,> 100,
COc1ccc2c3c([nH]c2c1[N+](=O)[O-])C(C)N(C)CC3 (centres undefined),> 100,
CCOC(=O)N[C@@H]1C(CC(=O)OC)O[C@H]2OC(C)(C)O[C@H]21 (some centres undefined),> 100,
CCCCCCCCCCCCCCCC(=O)OCC(C[As](=O)(O)O)OC(=O)CCCCCCCCCCCCCCC (centres undefined),> 100,
COc1cc(/C=C/c2ccc(OC)c(O)c2)cc(OC)c1,15,
COc1ccc(C(=O)c2cc(C)c(OC)c(C)c2)cc1OC(=O)CCl,> 100,< 0.01 µM
O=C(Nc1ccccc1-c1nc2ccccc2[nH]c1=O)c1ccccc1,49.6,
C=C(C)CCN[Si](c1ccccc1)(c1ccccc1)C(C)(C)C,30,
CC1=[N+]([O-])c2ccccc2C(=O)C1=O,> 100,
NC(=O)c1cc(Cl)ccc1NC(=O)/C=C/c1ccccc1,> 35.4,2.95 µM
O=C1/C(=C(/c2ccccc2)N2CCOCC2)Cc2ccccc21,4.57,1.65 µM
CC1=CC(=O)C=CC1=O,28.9,57.4 µM and 15.4 µM

Compound,TGI [µM],GI50
CCCC(CCC)NCC(O)c1cc(-c2ccc(C(F)(F)F)cc2)nc(C(F)(F)F)c1 (centres undefined),3.22,1.74 µM
Cc1cc(C)c(NC(=O)c2sc3nc4c(cc3c2N)C(=O)CCC4)c(C)c1,> 100,3.49 µM
CN(C)CCNc1ccc(CO)c2oc3ccc(O)cc3c(=O)c12,45.7,
Cc1ccc(NC(=O)c2cccc(C(C)(C)C#N)c2)cc1Nc1ccc2ncn(C)c(=O)c2c1,> 100,7.19 µM
Cc1cc2ncnn2cc1Nc1ncc2c(n1)n(C1CCOCC1)c(=O)n2C,> 100,14.1 µM
COc1ccc(C(=O)c2cc(C)c(OC)c(C)c2)c(OC)c1O,> 100,0.0485 µM
COCC[C@H]1CCC/C=C/[C@@H]2C[C@H](O)C[C@H]2[C@H](O)/C=C/C(=O)O1,> 100,0.166 µM
CN(Cc1ccccc1)C(=O)c1ccccc1C(=O)O,> 100,
CNC(=S)/N=C(\N)N(C)C,> 100,
CC(=O)C1Cn2c(nc3ccccc32)C[Se]1 (centres undefined),3.76,
Nc1ccccc1C#C/C=C\C#Cc1ccccc1N,32.2,13.9 µM
COC(=O)Nc1nc2ccc(C3(c4ccc(F)cc4)OCCO3)cc2[nH]1,> 100,0.398 µM
CN(C)CCC1(C2=CCCC2)CC/C(=C\c2ccc(Cl)cc2)C1=O (centres undefined),21.8,
CC1=CC(C)(C)N=C2SC(c3ccc(N)cc3)=NN12,> 100,
O=C(Nc1n[nH]c2cc(-c3ccccc3)ccc12)C1CC1,> 25,13.6 µM
O=C1C2C3C=C4c5ccccc5N(c5ccccc5)C4(C2C(=O)N1c1ccc([N+](=O)[O-])cc1)[C@H]1C(=O)N(c2ccc([N+](=O)[O-])cc2)C(=O)[C@@H]31 (some centres undefined),> 100,
